From patent publication US9938273B2 (Plexxikon Inc., priority 2015, dated 2018)
pIC50: −log10 of the molar value.

What was measured:
[1] = tested on: MOLM-14 D835Y cells, FLT3 ITD and FLT3 D835Y; assay: Cell proliferation assay (CellTiter-Glo), MOLM-14 D835Y; assay type: cell-based; settings: Homo sapiens, 72 h, 3d-Growth, GMean
Excerpt: (§1) The FLT3 inhibitors may be assessed using the MOLM-14, Acute Myeloid Leukemia cell line that endogenously expresses FLT3 ITD or derivatives of the human FLT3 AML cell line which acquired the D835Y (activation loop) of F691L (gatekeeper) mutation after selection in escalating doses of the FLT3 Inhibitor AC220. FLT3 inhibitors may also be assessed using cells that are engineered to express mutant FLT3. For engineered cells, murine Ba/F3 cells were transfected with full-length FLT3 ITD/D835Y mutations. The parental BA/F3 cells are dependent upon Interleukin-3 (IL-3) for survival, and introduction of the FLT3 constructs rendered these cells dependent upon FLT3 kinase activity when cultured in the absences of IL-3. Engineered BA/F3 cell growth assays can be performed in either the […] of IL-3, to assess the compound inhibition of FLT3 or to detect the presence of off-target activity, respectively. Inhibitors of FLT3 kinase activity reduce or eliminate the FLT3 oncogenic signaling, resulting in reduced cell proliferation. This inhibition is measured as a function of compound concentration to asses IC50 values.
(§2) Cell lines used in proliferation assays are as follows in Table 3:
(§3) Cells were seeded at 1×10^4 cells per well of a 96 well cell culture plate in 50 μl of cell culture medium. Compounds were dissolved in DMSO, typically at a concentration of 0.5 mM and were serially diluted 1:3 for a total of eight points and added to the cells to final concentrations of […], 0.0041, 0.0014 and 0.00046 μM in 100 μl cell culture medium (final concentration 0.2% DMSO). […] The cells were incubated at 37° C., 5% CO2 for three days. CellTiter-Glo Buffer (Promega Cell Viability Assay catalog #G7573) and substrate were equilibrated to room temperature, and enzyme/substrate Recombinant Firefly Luciferase/Beetle Luciferin was reconstituted. The cell plates were equilibrated to room temperature for 30 minutes, then lysed by addition of an equivalent volume of the Celltiter-Glo Reagent. The plate was mixed for 10 minutes on a plate shaker to lyse the cells. The plates were read on a Tecan M1000 using Luminescence protocol modified to read 0.1 s per well. The luminescence reading assesses the ATP content, which correlates directly with cell number such that the reading as a function of compound concentration was used to determine the IC50 value.

[2] = target: T1, BA/F3-FLT3-ITD + D835Y cells (Homo sapiens, UniProt P36888, D835Y, cells depend on it, form not given); assay: Cell proliferation assay (CellTiter-Glo), engineered BA/F3 cells; assay type: cell-based, murine; settings: BaF3 FLT3 ITD/D835Y cells, 3d-Growth; read-out: BaF3_FLT3 ITD/D835Y 3d-Growth: IC50
T1 sequence (P36888 1-993 D835Y): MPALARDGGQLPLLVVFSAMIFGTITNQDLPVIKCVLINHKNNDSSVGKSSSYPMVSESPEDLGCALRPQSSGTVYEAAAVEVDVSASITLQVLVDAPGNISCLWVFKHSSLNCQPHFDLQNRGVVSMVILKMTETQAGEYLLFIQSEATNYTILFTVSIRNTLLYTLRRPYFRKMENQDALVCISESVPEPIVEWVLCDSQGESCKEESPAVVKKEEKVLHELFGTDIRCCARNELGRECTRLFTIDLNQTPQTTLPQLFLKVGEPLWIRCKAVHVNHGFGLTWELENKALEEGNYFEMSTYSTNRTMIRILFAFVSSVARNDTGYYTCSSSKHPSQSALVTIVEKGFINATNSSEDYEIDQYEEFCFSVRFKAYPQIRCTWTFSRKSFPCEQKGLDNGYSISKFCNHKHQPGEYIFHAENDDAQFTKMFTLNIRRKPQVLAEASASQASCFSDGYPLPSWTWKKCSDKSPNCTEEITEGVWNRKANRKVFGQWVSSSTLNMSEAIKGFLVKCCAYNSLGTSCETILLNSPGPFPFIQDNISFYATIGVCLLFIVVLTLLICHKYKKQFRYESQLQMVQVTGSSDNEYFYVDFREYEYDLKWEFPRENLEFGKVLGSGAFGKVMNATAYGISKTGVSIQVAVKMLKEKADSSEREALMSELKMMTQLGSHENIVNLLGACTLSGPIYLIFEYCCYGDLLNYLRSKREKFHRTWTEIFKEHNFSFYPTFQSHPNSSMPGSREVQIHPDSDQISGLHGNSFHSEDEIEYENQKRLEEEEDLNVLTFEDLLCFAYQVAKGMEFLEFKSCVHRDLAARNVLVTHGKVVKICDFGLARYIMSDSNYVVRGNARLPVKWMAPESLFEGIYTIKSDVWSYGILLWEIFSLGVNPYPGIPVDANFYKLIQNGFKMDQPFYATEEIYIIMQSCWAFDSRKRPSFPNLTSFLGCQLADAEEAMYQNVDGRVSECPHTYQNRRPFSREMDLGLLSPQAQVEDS
Excerpt: as §1, §2, §3

[3] = target: T2, c-KIT (Homo sapiens, UniProt P10721); assay: AlphaScreen kinase assay with recombinant enzyme, c-KIT; assay type: biochemical; settings: 100ATP, 8pt, GMean
T2 construct: purchased Millipore 14-559K
Experimental: (§4) In order to determine the effect of compounds on FLT3 catalytic activity, kinase assays using recombinant enzymes and AlphaScreen® technology have been established. The catalytic activity of c-kit activity was also measured to determine selectivity of the compounds. When the kinases are catalytically active, they phosphorylate a biotinylated peptide substrate on tyrosine residues. Using AlphaScreen® technology, the ability of the compounds to affect the catalytic activity of the kinases can be measured quantitatively. The peptide substrate is immobilized by the AlphaScreen® Streptavidin Donor beads and, upon phosphorylation by a tyrosine kinase, can bind to AlphaScreen® Anti-Phosphotyrosine (PY20) Acceptor beads. Upon excitation of these beads with laser light at 680 nm, singlet oxygen is produced. This singlet oxygen is rapidly quenched, unless the AlphaScreen® Anti-Phosphotyrosine (PY20) Acceptor beads are in close proximity, in which case a proximity signal can be measured at 580 nm. In the presence of catalytic activity, there is a very strong proximity signal. Selective kinase inhibitors affect a decrease in this proximity signal through a decrease in tyrosine phosphorylation of the peptide substrate.
(§5) The assay was performed as summarized below.
(§6) Poly (Glu4-Tyr) Peptide, biotin conjugate [Biotin-GG(EEEEY)10EE] (SEQ ID NO: 4)
(§7) Final concentration=30 nM
(§8) Final concentration for IC50 determination=10 μM (FLT3-D835Y or FLT3-ITD) or 100 μM (c-KIT)
(§9) AlphaScreen® Phosphotyrosine (PY20) Assay Kit
(§10) Final concentration=10 μg/mL
(§11) Dilute compounds in DMSO to 20× final concentration.
(§12) Add 1 μl of compound to each well of 384 well reaction plate (Perkin Elmer #6005359).
(§13) Mix enzyme and Poly (Glu4-Tyr) Peptide substrate at 1.33× final concentration in assay buffer.
(§14) Mix ATP at 5× final concentration in assay buffer.
(§15) Add 15 μL enzyme/substrate mixture to the reaction plate.
(§16) Add 4 μL of ATP to the reaction plate.
(§17) Mix Streptavidin Donor beads at 6× final concentration in Stop/Detection buffer.
(§18) Add 5 μL Streptavidin Donor beads to the reaction plate. Centrifuge 1 minute, shake to mix, and incubate at room temperature for 20 minutes.
(§19) Mix Anti-Phosphotyrosine (PY20) Acceptor beads at 6× final concentration in Stop/Detection buffer.
(§20) Add 5 μL Anti-Phosphotyrosine (PY20) beads to the reaction plate.
(§21) Centrifuge 1 minute, shake to mix, and incubate at room temperature for 60 minutes.
(§22) Read plate on Wallac EnVision™ 2103 Multilabel Reader.

[4] = tested on: MOLM-14 F691L cells, FLT3 ITD and FLT3 F691L; assay: Cell proliferation assay (CellTiter-Glo), MOLM-14 F691L; assay type: cell-based; settings: Homo sapiens, 72 h, 3d-Growth, GMean
Excerpt: as §1, §2, §3

[5] = target: T3, FLT3-D835Y (Homo sapiens, UniProt P36888, D835Y); assay: AlphaScreen kinase assay with recombinant enzyme, FLT3-D835Y; assay type: biochemical; settings: 8pt, GMean
T3 construct: purchased Invitrogen PV3967
T3 sequence (P36888 27-993 D835Y): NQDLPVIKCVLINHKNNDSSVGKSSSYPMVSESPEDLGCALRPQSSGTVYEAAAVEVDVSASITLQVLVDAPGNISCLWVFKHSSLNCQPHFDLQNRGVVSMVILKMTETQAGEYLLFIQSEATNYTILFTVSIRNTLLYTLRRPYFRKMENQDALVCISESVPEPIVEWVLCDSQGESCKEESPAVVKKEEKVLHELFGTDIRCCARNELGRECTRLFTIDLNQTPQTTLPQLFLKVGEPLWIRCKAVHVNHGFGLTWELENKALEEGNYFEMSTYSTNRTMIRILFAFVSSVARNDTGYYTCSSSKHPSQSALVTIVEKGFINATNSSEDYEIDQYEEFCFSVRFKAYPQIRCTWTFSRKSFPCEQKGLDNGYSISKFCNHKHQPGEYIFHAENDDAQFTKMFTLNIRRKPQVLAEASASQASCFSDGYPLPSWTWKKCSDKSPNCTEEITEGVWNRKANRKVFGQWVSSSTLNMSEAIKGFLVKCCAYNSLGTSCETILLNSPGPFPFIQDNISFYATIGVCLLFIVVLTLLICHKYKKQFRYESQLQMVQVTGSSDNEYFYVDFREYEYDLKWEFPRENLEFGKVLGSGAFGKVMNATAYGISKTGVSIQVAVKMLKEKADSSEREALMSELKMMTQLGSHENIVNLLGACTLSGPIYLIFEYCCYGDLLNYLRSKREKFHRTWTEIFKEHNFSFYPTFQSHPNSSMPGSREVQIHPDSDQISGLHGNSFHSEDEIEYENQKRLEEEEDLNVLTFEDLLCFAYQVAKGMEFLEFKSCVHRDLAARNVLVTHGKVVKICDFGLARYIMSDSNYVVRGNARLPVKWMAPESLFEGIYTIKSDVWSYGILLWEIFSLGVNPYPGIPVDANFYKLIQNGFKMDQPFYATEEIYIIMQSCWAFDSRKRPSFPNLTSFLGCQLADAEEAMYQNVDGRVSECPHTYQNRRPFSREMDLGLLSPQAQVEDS
Experimental: as §4, §5, §6, §7, §8, §9, §10, §11, §12, §13, §14, §15, §16, §17, §18, §19, §20, §21, §22

T2 sequence (P10721 26-976): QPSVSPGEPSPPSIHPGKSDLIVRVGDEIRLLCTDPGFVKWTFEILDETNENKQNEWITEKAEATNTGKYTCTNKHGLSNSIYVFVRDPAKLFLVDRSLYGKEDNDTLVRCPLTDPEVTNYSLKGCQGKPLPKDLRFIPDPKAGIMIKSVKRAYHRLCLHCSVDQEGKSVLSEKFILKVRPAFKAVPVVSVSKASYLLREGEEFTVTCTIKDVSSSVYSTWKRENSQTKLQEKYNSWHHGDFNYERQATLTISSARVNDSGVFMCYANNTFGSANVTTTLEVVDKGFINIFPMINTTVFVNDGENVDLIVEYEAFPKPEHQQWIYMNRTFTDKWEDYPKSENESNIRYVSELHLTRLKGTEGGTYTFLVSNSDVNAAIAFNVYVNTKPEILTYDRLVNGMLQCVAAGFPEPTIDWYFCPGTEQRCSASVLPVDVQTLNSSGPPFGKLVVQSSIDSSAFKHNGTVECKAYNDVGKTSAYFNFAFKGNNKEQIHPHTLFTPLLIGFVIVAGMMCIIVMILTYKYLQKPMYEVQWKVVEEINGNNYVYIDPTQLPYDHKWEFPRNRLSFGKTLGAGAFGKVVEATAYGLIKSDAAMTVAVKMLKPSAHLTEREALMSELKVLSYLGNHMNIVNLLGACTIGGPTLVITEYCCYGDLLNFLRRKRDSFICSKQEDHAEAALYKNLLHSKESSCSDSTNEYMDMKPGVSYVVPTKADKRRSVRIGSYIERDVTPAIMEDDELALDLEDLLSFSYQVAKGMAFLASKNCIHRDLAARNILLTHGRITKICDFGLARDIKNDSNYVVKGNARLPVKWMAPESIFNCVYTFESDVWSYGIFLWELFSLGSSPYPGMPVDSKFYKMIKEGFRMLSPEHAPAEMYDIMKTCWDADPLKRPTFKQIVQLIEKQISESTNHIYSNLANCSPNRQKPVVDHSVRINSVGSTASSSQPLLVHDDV

pIC50 [1]	GI50 [2]	pIC50 [3]	pIC50 [4]	pIC50 [5]	SMILES
5.00 to 10.00	0.0001 to 10 µM	4.00 to 4.30	–	–	CC(C)(C#N)CNS(=O)(=O)c1cccc(-c2cnc3[nH]c(-c4ccccc4)cc3c2)n1 [Compound P-0108, N-(2-cyano-2-methyl-propyl)-6-(2-phenyl-1H-pyrrolo[2,3-b]pyridin-5-yl)pyridine-2-sulfonamide]
5.00 to 10.00	–	–	5.00 to 10.00	5.00 to 10.00	N#CCCCNC(=O)c1cccc(-c2cnc3[nH]c(-c4ccccc4)cc3c2)n1 [Compound P-0128, N-(3-cyanopropyl)-6-(2-phenyl-1H-pyrrolo[2,3-b]pyridin-5-yl)pyridine-2-carboxamide]
5.00 to 10.00	–	–	5.00 to 10.00	5.00 to 10.00	CC(C)(C#N)NC(=O)c1cccc(-c2cnc3[nH]c(-c4cnn(C5CCNCC5)c4)c(Cl)c3c2)n1 [Compound P-0207, 6-[3-chloro-2-[1-(4-piperidyl)pyrazol-4-yl]-1H-pyrrolo[2,3-b]pyridin-5-yl]-N-(1-cyano-1-methyl-ethyl)pyridine-2-carboxamide]
